Where a SMILES comes first, the peptide text is derived from it.
What was measured:
[1] = tested on: Aβ25-35-induced spatial working memory deficits; assay: Place learning in the Morris water-maze (MWM), D09-D14; type: in vivo, mice; conditions: IP 2 mg/kg once a day
Protocol: The examples are using a model of Tauopathies. In this model, mice were injected intracerebroventricularly (ICV) at Day 01 (D01) with Aβ25-35 peptide (or with scrambled-Aβ peptide (Sc.Aβ) for Sham animals). This severe animal model recapitulates modulations of specific biomarkers (including deposits of brain Amyloid Beta1-42 and hyperphosphorylated Tau protein) involved in the physiopathology and the progression of human Tauopathies, as well as strong cognitive deficits (memory loss) as encountered by the patients (Maurice et al., 1996, 1998, 2013; Meunier et al., 2006).
After the Y-Maze and instead of performing the STPA test, some animals performed the Morris Water-Maze (MWM) test in order to assess spatial working memory deficits (a six-day test from D09 to D14). This gold-standard test consists in a circular pool filled with opaque water placed in a room with external cues (sink, contrasted posters, shelves). A platform is immersed under the water surface during acquisition. Training consists in 3 swims per day for 5 days, performed between D09 to D13, with a 20 min inter-trial time. Each mouse is allowed to swim for 90 sec in order to find the platform, and to stay on it for 20 sec.
A probe test (PT) is performed 24 h after the last swim on D14. For the PT, the platform is removed, and each animal is allowed to swim for 60 sec. The start position for each mouse corresponds to one of two positions remote from the platform location in a counterbalanced order. The platform quadrant is named ‘target’ and other quadrants (opposite, adjacent right and adjacent left) are named ‘other’ during the PT. The time spent in each quadrant is recorded. The results are expressed as the percentage of time spent in the target quadrant compared to the mean percentage of time spent in the three other quadrants.
Every day, the latencies to find the platform during the first (swim1), second (swim2), third (swim3), […] trials were monitored and averaged in this six-day experiment (Maurice et al., 2013).

[2] = Preliminary in vitro conversion of NX210 in rat plasma; type: in vitro ADME
[3] = tested on: Aβ25-35-induced short-term memory deficits; assay: Spontaneous alternation performance (Y-maze), treatment started 1 hour after Aβ25-35 injection, tested D08; type: in vivo, mice; conditions: for Y-maze % (Sc.Aβ / Vhc = 100) / Y-maze Mean, percentage of alternation: D08
[4] = IP 2 mg/kg every other day (1/2d)
[5] = IP 3.75 mg/kg every other day (1/2d)

N=C(N)NCCC[C@H](NC(=O)[C@H](CO)NC(=O)[C@H](CS)NC(=O)[C@H](CO)NC(=O)[C@H](CO)NC(=O)[C@H](Cc1c[nH]c2ccccc12)NC(=O)CNC(=O)[C@H](CO)NC(=O)[C@@H](N)Cc1c[nH]c2ccccc12)C(=O)N[C@@H](CO)C(=O)N[C@@H](CS)C(=O)NCC(=O)O [NX210, W-S-G-W-S-S-C-S-R-S-C-G] (H-WSGWSSCSRSCG-OH; N-terminus and C-terminus assumed)
effect on learning profile and spatial memory deficits (MWM), in words [1]: significantly rescued
MWM - Probe test, mean percentage of time spent in the three other quadrants (Other) ([1]; D14): 20.30%
MWM - Learning profile, Mean time spent to find the platform (last block, heading missing) ([1]; fifth training day): 24.25 s
MWM - Learning profile - Day 1, Mean time spent to find the platform ([1]; training Day 1): 79.67 s
MWM - Learning profile - Day 2, Mean time spent to find the platform ([1]; training Day 2): 53.58 s
MWM - Learning profile - Day 3, Mean time spent to find the platform ([1]; training Day 3): 35.83 s
MWM - Learning profile - Day 4, Mean time spent to find the platform ([1]; training Day 4): 25.92 s
conversion by oxidation in rat plasma, in words [2]: rapidly converted into NX218
effect on spatial short-term working memory deficits (Y-maze), in words ([3]; 1, 2 and 3.75 mg/kg IP, once a day or every other day): significantly rescued
Y-maze % (Sc.Aβ / Vhc = 100) ([3]; IP 0.1 mg/kg once a day): 60%
Y-maze Mean, percentage of alternation ([3]; IP 0.1 mg/kg once a day): 44.52%
Y-maze % (Sc.Aβ / Vhc = 100) ([3]; IP 1 mg/kg once a day): 79%
Y-maze Mean, percentage of alternation ([3]; IP 1 mg/kg once a day): 58.16%
Y-maze % (Sc.Aβ / Vhc = 100) [3, 4]: 100%
Y-maze Mean, percentage of alternation [3, 4]: 74.35%
Y-maze % (Sc.Aβ / Vhc = 100) ([3]; IP 2 mg/kg once a day): 98%
Y-maze Mean, percentage of alternation ([3]; IP 2 mg/kg once a day): 72.67%
Y-maze % (Sc.Aβ / Vhc = 100) [3, 5]: 98%
Y-maze Mean, percentage of alternation [3, 5]: 72.62%
Y-maze % (Sc.Aβ / Vhc = 100) ([3]; IP 3.75 mg/kg once a day): 96%
Y-maze Mean, percentage of alternation ([3]; IP 3.75 mg/kg once a day): 70.90%
restoration of short-term memory to Sham level (Y-maze), in words ([3]; NX210 at 2 and 3.75 mg/kg, NX218 at 1, 2 and 3.75 mg/kg): complete restoration
effect on Aβ25-35-induced short-term memory deficits (Y-maze) at subactive dose, in words ([3]; once a day, NX210 0.1 mg/kg, NX218 0.1 mg/kg, DPZ 0.25 mg/kg): do not impede
